Measured values taken from US20190223437A1, “ACTIVE COMPOUND COMBINATIONS COMPRISING A 5-SUBSTITUTED IMIDAZOLE DERIVATIVE” (BAYER CROPSCIENCE AKTIENGESELLSCHAFT, priority 2016, published 2019).
Marks after values point to notes of the source that are not given here.

Assay: Measurement of Log P values by HPLC on reversed phase columns (EEC directive 79/831 Annex V.A8)
Type: physicochemical
Conditions: not given

SMILES	LogP
OC(Cc1ccccc1F)(Cn1cncc1Br)C1(Cl)CC1 (racemic) [Example I-33]	2.10^[a]
COc1cncn1CC(O)(Cc1ccccc1F)C1(Cl)CC1 (racemic) [Example I-35]	1.67^[a]
C#Cc1cncn1CC(O)(Cc1ccccc1F)C1(Cl)CC1 (racemic) [Example I-36]	1.89^[a]
OC(Cc1ccccc1F)(Cn1cncc1C1CC1)C1(Cl)CC1 (racemic) [Example I-37]	1.86^[a]
C#Cc1cncn1CC(O)(Cc1ccccc1Cl)C1(Cl)CC1 (racemic) [Example I-38]	2.09^[a]
OC(Cc1ccccc1)(Cn1cncc1Cl)C1(Cl)CC1 (racemic) [Example I-39]	2.04^[a]
N#Cc1cncn1CC(O)(Cc1ccc(Br)cc1Cl)C1(Cl)CC1 (racemic) [Example I-41]	3.52^[a]
N#Cc1cncn1CC(O)(Cc1ccc(Br)cc1F)C1(Cl)CC1 (racemic) [Example I-42]	3.24^[a]
OC(Cc1ccc(Br)cc1F)(Cn1cncc1Cl)C1(Cl)CC1 (racemic) [Example I-44]	2.64^[a]
N#Cc1cncn1CC(O)(Cc1ccncc1Br)C1(Cl)CC1 (racemic) [Example I-46]	1.94^[a]
N#Cc1cncn1CC(O)(Cc1cc(Br)ncc1Br)C1(Cl)CC1 (racemic) [Example I-47]	2.73^[a]
N#Cc1cncn1CC(O)(Cc1cccc(Cl)c1Cl)C1(Cl)CC1 (racemic) [Example I-49]	3.25^[a]
N#Cc1cncn1CC(O)(Cc1ccnc(Cl)c1Cl)C1(Cl)CC1 (racemic) [Example I-50]	2.47^[a]
N#Cc1cncn1CC(O)(Cc1ccc(Oc2ccc(Cl)cc2)cc1Cl)C1(Cl)CC1 (racemic) [Example I-53]	4.54^[a]
COc1ccccc1CC(O)(Cn1cncc1C#N)C1(Cl)CC1 (racemic) [Example I-55]	2.93^[a]
N#Cc1cncn1CC(O)(Cc1cc(Cl)ncc1Cl)C1(Cl)CC1 (racemic) [Example I-56]	2.62^[a]
N#Cc1cncn1CC(O)(Cc1ccncc1Cl)C1(Cl)CC1 (racemic) [Example I-57]	1.88^[a]
N#Cc1cncn1CC(O)(Cc1cc(Cl)cc(Cl)c1)C1(Cl)CC1 (racemic) [Example I-58]	3.55^[a]
N#Cc1cncn1CC(O)(Cc1ccnc(Cl)c1)C1(Cl)CC1 (racemic) [Example I-62]	2.04^[a]
N#Cc1cncn1CC(O)(Cc1ccc(Cl)cc1)C1(Cl)CC1 (racemic) [Example I-64]	3.10^[a]

SMILES	LogP
OC(Cc1cccc(Cl)c1Cl)(Cn1cncc1Cl)C1(Cl)CC1 (racemic) [Example I-66]	2.69^[a]
OC(Cc1ccnc(Cl)c1Cl)(Cn1cncc1Cl)C1(Cl)CC1 (racemic) [Example I-67]	2.08^[a]
Cc1ccc(CC(O)(Cn2cncc2Cl)C2(Cl)CC2)c(C)c1 (racemic) [Example I-68]	2.69^[a]
Cc1ccccc1CC(O)(Cn1cncc1Cl)C1(Cl)CC1 (racemic) [Example I-71]	2.33^[a]
OC(Cc1ccncc1Cl)(Cn1cncc1Cl)C1(Cl)CC1 (racemic) [Example I-72]	1.52^[a]
OC(Cc1cc(Cl)nc(Cl)c1)(Cn1cncc1Cl)C1(Cl)CC1 (racemic) [Example I-74]	2.23^[a]
OC(Cc1ccnc(Cl)c1)(Cn1cncc1Cl)C1(Cl)CC1 (racemic) [Example I-75]	1.62^[a]
Nc1cncn1CC(O)(Cc1ccccc1Cl)C1(Cl)CC1 (racemic) [Example I-78]	1.50^[a]
CC1(C(O)(Cc2ccccc2Cl)Cn2cncc2C#N)CC1 (racemic) [Example I-79]	2.87^[a]
N#Cc1cncn1CC(O)(Cc1ccccc1Cl)C1CC1 (racemic) [Example I-80]	2.57^[a]
CC(C)C(O)(Cc1ccccc1Cl)Cn1cncc1C#N (racemic) [Example I-82]	2.67^[a]
CC(C)(C)CC(O)(Cc1ccccc1Cl)Cn1cncc1C#N (racemic) [Example I-83]	3.55^[a]
N#Cc1cncn1CC(O)(Cc1ccccc1Cl)CC1CC1 (racemic) [Example I-84]	2.84^[a]
N#Cc1cncn1CC(O)(Cc1cccc(Cl)c1Cl)C1CCC1 (racemic) [Example I-85]	3.31^[a]
CC(C)(C)CC(O)(Cc1ccc(Cl)cc1)Cn1cncc1C#N (racemic) [Example I-86]	3.37^[a]
OC(Cc1ccccc1C(F)(F)F)(Cn1cncc1Cl)C1(Cl)CC1 (racemic) [Example I-89]	2.62^[a]
N#Cc1cncn1CC(O)(Cc1ccncc1C(F)(F)F)C1(Cl)CC1 (racemic) [Example I-92]	2.18^[a]
N#Cc1cncn1CC(O)(Cc1ccc(Cl)cc1F)C1(F)CC1 (racemic) [Example I-96]	2.78^[a]
N#Cc1cncn1CC(O)(Cc1ccccc1Cl)C1(F)CC1 (racemic) [Example I-98]	2.53^[a]
N#Cc1cncn1CC(O)(Cc1ccc(F)cc1)C1(F)CC1 (racemic) [Example I-100]	2.35^[a]

SMILES	LogP
OC(Cc1ccc(Cl)cc1F)(Cn1cncc1Cl)C1(Cl)CC1 (single isomer, unassigned) [Example I-113]	2.54^[a]
COC(=O)c1cncn1CC(O)(Cc1ccccc1Cl)C1(Cl)CC1 (stereo not shown) [Example I-01]	2.82^[a]
Cc1cncn1CC(O)(Cc1ccccc1Cl)C1(Cl)CC1 (stereo not shown) [Example I-03]	1.72^[a]
OC(Cc1ccccc1Cl)(Cn1cncc1Br)C1(Cl)CC1 (stereo not shown) [Example I-04]	2.27^[a]
OC(Cn1cncc1Cl)(C(F)c1ccccc1Cl)C1(Cl)CC1 (stereo not shown) [Example I-05]	2.17^[a]
OC(Cc1cccnc1Cl)(Cn1cncc1Cl)C1(Cl)CC1 (stereo not shown) [Example I-07]	1.57^[a]
OC(Cc1ccc(F)cc1Cl)(Cn1cncc1Cl)C1(Cl)CC1 (stereo not shown) [Example I-08]	2.47^[a]
Cc1cncn1CC(O)(Cc1cccnc1Cl)C1(Cl)CC1 (stereo not shown) [Example I-10]	1.22^[a]
OC(Cc1c(Cl)ccnc1Cl)(Cn1cncc1Cl)C1(Cl)CC1 (stereo not shown) [Example I-11]	2.02^[a]
Cc1cncn1CC(O)(C(F)c1ccccc1Cl)C1(Cl)CC1 (stereo not shown) [Example I-13]	1.75^[a]
OC(Cc1ccccc1Cl)(Cn1cncc1I)C1(Cl)CC1 (stereo not shown) [Example I-14]	2.14^[a]
OC(Cc1ccccc1Cl)(Cn1cncc1C(F)(F)F)C1(Cl)CC1 (stereo not shown) [Example I-15]	3.63^[a]
OC(Cc1ccccc1Cl)(Cn1cncc1F)C1(Cl)CC1 (stereo not shown) [Example I-16]	1.94^[a]
OC(Cc1cc(Cl)ncc1Cl)(Cn1cncc1Cl)C1(Cl)CC1 (stereo not shown) [Example I-17]	2.18^[a]
OC(Cc1cc(F)ncc1Cl)(Cn1cncc1Cl)C1(Cl)CC1 (stereo not shown) [Example I-18]	2.01^[a]
N#CCc1cncn1CC(O)(Cc1ccccc1Cl)C1(Cl)CC1 (stereo not shown) [Example I-21]	1.66^[a]
CSc1cncn1CC(O)(Cc1ccccc1Cl)C1(Cl)CC1 (stereo not shown) [Example I-22]	2.08^[a]
OC(Cn1cncc1Br)(C(F)c1ccccc1Cl)C1(Cl)CC1 (stereo not shown) [Example I-23]	2.32^[a]

Same assay, conditions: method [a]: LC-UV, acidic range, 0.1% formic acid in water and acetonitrile as eluent; Table 1, compounds of formula (I)

SMILES	LogP
N#Cc1cncn1CC(O)(Cc1ccc(-c2ccccc2)cc1)C1(Cl)CC1 (racemic) [Example I-63]	3.68^[a]
OC(Cc1ccccc1Cl)(Cn1cncc1Cl)C1(Cl)CC1 (stereo not shown) [Example I-02]	2.32

Same assay, conditions: method [c]: LC-UV, acidic range, 0.1% phosphoric acid and acetonitrile as eluent; Table 1

SMILES	LogP
OC(Cc1ccccc1Cl)(Cn1cncc1Cl)C1(Cl)CC1 (stereo not shown) [Example I-02]	2.00
